How the values were obtained:
MRGPRX2 [1] = target: T1, MRGPRX2 (Homo sapiens, UniProt Q96LB1); test: FcεR1/MRGPRX2 dual-stimulation β-hexosaminidase release in freshly isolated human skin mast cells; type: cell-based; set-up: human mast cells expressing endogenous MRGPRX2; endogenous in cells; […]; details: Substance P plus anti-IgE (10 μg/mL); n = 3 donors
T1 sequence (Q96LB1 1-330): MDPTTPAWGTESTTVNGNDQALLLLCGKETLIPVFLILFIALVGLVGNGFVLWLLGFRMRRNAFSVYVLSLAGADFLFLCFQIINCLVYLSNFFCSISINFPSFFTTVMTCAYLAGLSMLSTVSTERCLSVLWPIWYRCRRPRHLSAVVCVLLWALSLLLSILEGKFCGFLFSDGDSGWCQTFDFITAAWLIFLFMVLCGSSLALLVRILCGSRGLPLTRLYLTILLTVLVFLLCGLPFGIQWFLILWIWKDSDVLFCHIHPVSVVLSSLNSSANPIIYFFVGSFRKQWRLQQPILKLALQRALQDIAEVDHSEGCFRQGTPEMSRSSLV
Description: (§1) Tissue was processed, removing adipose and cutting into small segments. Epidermis was removed after incubation with dispase II (2 mg/mL; Sigma-Aldrich) [100 mL/50-cm^2 tissue, base buffer; Dulbecco’s Phosphate-buffered Saline (D-PBS) (Gibco, supplemented with Ca^2+/Mg^2+), amphotericin B (2.5 μg/mL), penicillin (100 units/mL)/streptomycin (100 μg/mL) (Sigma-Aldrich)] for 37°C for 2–4 h followed by 4°C overnight. The remaining dermis was homogenized into a uniform mass and digested with an enzyme cocktail [collagenase IV (10 mg/mL; Gibco), hyaluronidase I-S (5 mg/mL; Sigma), DNAse I (10 μg/ml; Roche)] in base buffer (supplemented with 10% FBS) in a shaking incubator at 37°C for 90 min. […]
(§2) For human primary skin mast cell degranulation experiments, both β-hexosaminidase and tryptase were measured. […] Plates were centrifuged, with supernatants collected and lysates generated [cell pellets lysed in 0.1% Tx100 (Sigma), in assay buffer], and then stored at −80°C for later quantification. β-Hexosaminidase activity assay was performed as already described. For tryptase quantification: The amount of total tryptase (α and β tryptase) was quantified using the ImmunoCap Tryptase Test ran on either a Phadia 100 or 250 Immunoassay Analyzer as per the manufacturer’s protocol. […]

MRGPRX2 [2] = target: T1, MRGPRX2; test: Substance P-stimulated tryptase release from freshly isolated human skin mast cells; type: cell-based; set-up: human mast cells expressing endogenous MRGPRX2; endogenous in cells; […]; details: read-out: pIC50, inhibition of Substance P-stimulated tryptase release (converted)
Description: as §1, §2

With `C[C@@H](C(=O)Nc1cnc(Oc2ccc(F)cc2F)cn1)N1CCC(F)(F)[C@@H](c2cc[n+]([O-])cc2)C1` [Compound B] the “Effect on MRGPRX2-dependent augmentation of FcεR1/MRGPRX2 dual-stimulation β-hexosaminidase release” value (MRGPRX2 [1]) was “selectively inhibits” and the IC50 (MRGPRX2 [2]) was 0.417 nM.

From paper PMC11527646, “Pharmacological blockade of the mast cell MRGPRX2 receptor supports investigation of its relevance in skin disorders” (Frontiers in Immunology, 2024)
